Laboratory results reported in ChEMBL document CHEMBL1137908, “Synthesis and antibacterial activity of novel 6-fluoro-1-[(1R,2S)-2-fluorocyclopropan-1-yl]-4-oxoquinoline-3-carboxylic acids bearing cyclopropane-fused 2-amino-8-azabicyclo[4.3.0]nonan-8-yl substituents at the C-7 position” (Bioorg Med Chem Lett, 2004).
Converted amounts (≈) assume the structure as drawn.

What was measured:
DNA topoisomerase II = DNA topoisomerase II (Homo sapiens, UniProt P11388+Q02880); assay: Inhibitory concentration against human DNA topoisomerase II; type: protein assay
[1] = target: T1, DNA topoisomerase 4 subunit A (Staphylococcus aureus subsp. aureus Mu50, UniProt Q931S2); assay: Inhibitory concentration against Staphylococcus aureus DNA topoisomerase IV
T1 sequence (Q931S2 whole entry): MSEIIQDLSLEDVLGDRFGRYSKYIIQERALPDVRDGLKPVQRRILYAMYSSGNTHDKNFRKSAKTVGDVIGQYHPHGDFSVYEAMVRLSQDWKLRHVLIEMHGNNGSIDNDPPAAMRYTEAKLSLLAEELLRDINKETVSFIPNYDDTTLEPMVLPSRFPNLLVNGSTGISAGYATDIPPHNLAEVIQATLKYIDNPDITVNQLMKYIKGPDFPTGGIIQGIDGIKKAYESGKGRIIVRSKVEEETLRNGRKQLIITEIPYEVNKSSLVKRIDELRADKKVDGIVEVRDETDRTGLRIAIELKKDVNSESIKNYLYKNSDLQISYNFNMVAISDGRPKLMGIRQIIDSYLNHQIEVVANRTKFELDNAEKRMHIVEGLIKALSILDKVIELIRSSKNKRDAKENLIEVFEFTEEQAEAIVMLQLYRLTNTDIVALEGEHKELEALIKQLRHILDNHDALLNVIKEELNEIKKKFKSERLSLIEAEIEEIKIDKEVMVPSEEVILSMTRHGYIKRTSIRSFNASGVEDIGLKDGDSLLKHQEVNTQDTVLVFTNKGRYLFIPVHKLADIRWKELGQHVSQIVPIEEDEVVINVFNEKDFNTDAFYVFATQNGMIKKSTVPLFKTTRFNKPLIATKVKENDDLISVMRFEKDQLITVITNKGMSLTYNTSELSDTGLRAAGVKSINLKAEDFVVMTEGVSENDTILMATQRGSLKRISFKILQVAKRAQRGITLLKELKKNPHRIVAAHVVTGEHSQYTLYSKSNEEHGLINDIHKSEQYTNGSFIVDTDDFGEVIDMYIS

Staphylococcus aureus [2] = assay: Antibacterial activity against Staphylococcus aureus FDA 209P was determined; type: functional
[3] = tested on: Staphylococcus epidermidis; assay: Antibacterial activity against Staphylococcus epidermidis 56500 was determined; type: functional
Enterococcus faecalis = assay: Antibacterial activity against Enterococcus faecalis ATCC 19433 was determined; type: functional
Streptococcus mitis = assay: Antibacterial activity against Streptococcus mitis IID685 was determined; type: functional
Streptococcus pyogenes = assay: Antibacterial activity against Streptococcus pyogenes G-36 was determined; type: functional
Klebsiella pneumoniae = assay: Antibacterial activity against Klebsiella pneumoniae type II was determined; type: functional
Escherichia coli = assay: Antibacterial activity against Escherichia coli NIHJ was determined; type: functional
Streptococcus pneumoniae = assay: Antibacterial activity against Penicillin-resistant Streptococcus pneumoniae (PRSP) J-24 was determined; type: functional
Staphylococcus aureus [4] = assay: Antibacterial activity against methicillin-resistant Staphylococcus aureus (MRSA) 870307 was determined; type: functional
[5] = Ratio of binding to human DNA topoisomerase II and Staphylococcus aureus DNA topoisomerase IV
[6] = Staphylococcus aureus, read-out: MIC
[7] = Escherichia coli, read-out: MIC
[8] = Staphylococcus epidermidis, read-out: MIC
[9] = Enterococcus faecalis, ATCC 19433, read-out: MIC
[10] = Streptococcus mitis, read-out: MIC
[11] = Streptococcus pyogenes, read-out: MIC
[12] = Klebsiella pneumoniae, read-out: MIC
[13] = Streptococcus pneumoniae, read-out: MIC

| Compound | IC50 (DNA topoisomerase II) | IC50 [1] | MIC (Staphylococcus aureus [2]; [6]) | MIC [3] | MIC (Enterococcus faecalis) | MIC (Streptococcus mitis) | MIC (Streptococcus pyogenes) | MIC (Klebsiella pneumoniae) | MIC (Escherichia coli; [7]) | MIC (Streptococcus pneumoniae) | MIC (Staphylococcus aureus [4]) | MIC [3, 8] | Selectivity [5] | MIC (Enterococcus faecalis; [9]) | MIC (Streptococcus mitis; [10]) | MIC (Streptococcus pyogenes; [11]) | MIC (Klebsiella pneumoniae; [12]) | MIC (Streptococcus pneumoniae; [13]) | MIC (Staphylococcus aureus [4]; [6]) | also measured |
| --- | --- | --- | --- | --- | --- | --- | --- | --- | --- | --- | --- | --- | --- | --- | --- | --- | --- | --- | --- | --- |
| Nc1c(F)c(N2C[C@H]3CC[C@H]4C[C@@]4(N)[C@H]3C2)c(F)c2c1c(=O)c(C(=O)O)cn2[C@@H]1C[C@@H]1F (stereo in doubt; 13 (+)) [listing 1 of 2 here] | 21.89 µg/mL (≈ 48.8 µM) | 669 nM | ≤ 0.003 µg/mL | <=0.003 ug ml-1 | 0.02 µg/mL (≈ 0.0446 µM) | <=0.003 ug ml-1 | <=0.003 ug ml-1 | 0.01 µg/mL (≈ 0.0223 µM) | ≤ 0.003 µg/mL | <=0.003 ug ml-1 | 0.006 µg/mL (≈ 0.0134 µM) | – | – | – | – | – | – | – | – | – |
| Cc1c(N2C[C@H]3CCC[C@@H](N)[C@H]3C2)c(F)c(N)c2c(=O)c(C(=O)O)cn([C@@H]3C[C@@H]3F)c12 | 4.66 µg/mL (≈ 10.8 µM) | 717 nM | 0.006 µg/mL (≈ 0.0139 µM) | – | – | – | – | – | 0.006 µg/mL (≈ 0.0139 µM) | – | – | ≤ 0.003 µg/mL | 14.7 | 0.02 µg/mL (≈ 0.0462 µM) | ≤ 0.003 µg/mL | ≤ 0.003 µg/mL | 0.02 µg/mL (≈ 0.0462 µM) | ≤ 0.003 µg/mL | 0.01 µg/mL (≈ 0.0231 µM) | – |
| Nc1c(F)c(N2C[C@H]3C[C@@H]4C[C@@H]4[C@H](N)[C@H]3C2)c(F)c2c1c(=O)c(C(=O)O)cn2[C@@H]1C[C@@H]1F (stereo in doubt; 26 (+)) | – | – | – | – | – | – | – | – | – | – | – | – | 17.3 | – | – | – | – | – | – | – |
| Cc1c(N2C[C@H]3CC[C@H]4C[C@@]4(N)[C@H]3C2)c(F)c(N)c2c(=O)c(C(=O)O)cn([C@@H]3C[C@@H]3F)c12 | 34.21 µg/mL (≈ 77 µM) | 810 nM | ≤ 0.003 µg/mL | – | – | – | – | – | ≤ 0.003 µg/mL | – | – | ≤ 0.003 µg/mL | 93.2 | 0.02 µg/mL (≈ 0.045 µM) | ≤ 0.003 µg/mL | ≤ 0.003 µg/mL | 0.01 µg/mL (≈ 0.0225 µM) | 0.006 µg/mL (≈ 0.0135 µM) | 0.01 µg/mL (≈ 0.0225 µM) | – |
| Nc1c(F)c(N2C[C@H]3CC[C@H]4C[C@@]4(N)[C@H]3C2)c(F)c2c1c(=O)c(C(=O)O)cn2[C@@H]1C[C@@H]1F (stereo in doubt; 13 (+)) [listing 2 of 2 here] | – | – | – | – | – | – | – | – | – | – | – | – | 71.3 | – | – | – | – | – | – | – |
| Nc1c(F)c(N2C[C@H]3CCC[C@@H](N)[C@H]3C2)c(F)c2c1c(=O)c(C(=O)O)cn2[C@@H]1C[C@@H]1F (stereo in doubt; 28 (+)) | – | – | – | – | – | – | – | – | – | – | – | – | 38.3 | – | – | – | – | – | – | – |
| Nc1c(F)c(N2C[C@H]3C[C@@H]4C[C@@H]4[C@@H](N)[C@H]3C2)c(F)c2c1c(=O)c(C(=O)O)cn2[C@@H]1C[C@@H]1F (stereo in doubt; 25 (-)) | – | – | – | 0.05 µg/mL (≈ 0.111 µM) | 0.2 µg/mL (≈ 0.446 µM) | 0.1 µg/mL (≈ 0.223 µM) | 0.39 µg/mL (≈ 0.87 µM) | 0.1 µg/mL (≈ 0.223 µM) | – | 0.1 µg/mL (≈ 0.223 µM) | 1.56 µg/mL (≈ 3.48 µM) | – | – | – | – | – | – | – | – | MIC (Staphylococcus aureus [2]): 0.006 µg/mL (≈ 0.0134 µM); MIC (Escherichia coli): 0.01 µg/mL (≈ 0.0223 µM) |
| Nc1c(F)c(N2C[C@H]3CCC[C@@H](N)[C@H]3C2)c(F)c2c1c(=O)c(C(=O)O)cn2[C@@H]1C[C@@H]1F (stereo in doubt; 29 (-)) | – | – | – | 0.2 µg/mL (≈ 0.458 µM) | 0.78 µg/mL (≈ 1.79 µM) | 0.1 µg/mL (≈ 0.229 µM) | 0.1 µg/mL (≈ 0.229 µM) | 0.39 µg/mL (≈ 0.894 µM) | – | 0.1 µg/mL (≈ 0.229 µM) | 0.78 µg/mL (≈ 1.79 µM) | – | – | – | – | – | – | – | – | MIC (Staphylococcus aureus [2]): 0.02 µg/mL (≈ 0.0458 µM); MIC (Escherichia coli): 0.1 µg/mL (≈ 0.229 µM) |
| CC(=O)NC[C@H]1CN(c2ccc(N3CCOCC3)c(F)c2)C(=O)O1 [LINEZOLID] | – | – | 0.78 µg/mL (≈ 2.31 µM) | – | – | – | – | – | 6.25 µg/mL (≈ 18.5 µM) | – | – | 1.56 µg/mL (≈ 4.62 µM) | – | 3.13 µg/mL (≈ 9.28 µM) | 1.56 µg/mL (≈ 4.62 µM) | 3.13 µg/mL (≈ 9.28 µM) | > 6.25 µg/mL | 0.78 µg/mL (≈ 2.31 µM) | 1.56 µg/mL (≈ 4.62 µM) | – |
